From PMC3411647 (PLoS ONE, 2012)

Key:
[1] = target: T1, hH1R (Homo sapiens, UniProt P35367); test: Intracellular Ca2+ flux assay in HEK-293 cells stably expressing hH1R; format: cell-based
T1 construct: expressed in transfected cells
From the text: (§1) Figure 3 The selectivity of ZEL-H16 for hH3R in intracellular Ca^2+ flux assay and CRE-luciferase transcription assay. A–C, Intracellular Ca^2+ flux or CRE-driven luciferase activity induced by ZEL-H16 in HEK-293 cells stably expressing hH1R (A), hH2R (B), or hH4R (C). […] The presented data points are the mean ±SE of triplicate values from a single experiment and are representative of three separate experiments. Statistical analysis between ZEL-H16 added or not added for each concentration point in the kinetic graph was done using a t-test (PRISM software). G, Relative expression of hH1R, hH2R, hH3R and hH4R on transfected HEK-293 cells by ELISA quantification for Flag-tagged cell-surface receptors (***p<0.001, compared to non-transfected HEK 293 cells).
The stably H1R-expressing HEK-293 cells were harvested with Cell Stripper (Mediatech, Herndon, VA), washed twice with phosphate-buffered saline (PBS), and resuspended in Hanks’ balanced salt solution (140 mM NaCl, 5 mM KCl, 10 mM HEPES, pH 7.4, 1 mM CaCl2, 1 mM MgCl2, 1 mg/ml glucose) containing 0.025% bovine serum albumin. […] Calcium flux was measured using excitation at 340 and 380 nm in a Infinite 200 PRO multifunctional microplate reader (Tecan Austria GmbH, Grödig, AT ) and [Ca^2+]i was measured using the 340/380 excitation ratio (R 340/380).

[2] = target: T2, human histamine H3 receptor (Homo sapiens, UniProt Q9Y5N1); test: Competitive/saturation binding with [3H]N-α-methylhistamine, H3R/HEK-293 cell membranes
T2 construct: expressed in transfected cells
Procedure: (§2) Figure 4 Competition binding experiments with [^3H]-N-α-methylhistamine. […] The presented data are the means ±SE of values from a single experiment performed in duplicate and are representative of three to six separate experiments.
HEK-293 cells stably expressing H3R were harvested and resuspended in ice-cold 50 mM Tris-HCl (pH 7.4) containing a complete protease inhibitor cocktail tablet and mixed by inverting. The cell pellet was homogenized with a Polytron PT 1200 set at 4000 rpm and centrifuged at 1,000 g for 5 min. The supernatant was then centrifuged twice at 50,000 g for 30 min at 4°C. Finally, the resulting pellet was gently suspended in 50 mM Tris-HCl (pH 7.4) buffer and the membrane concentration was determined using Bio-Rad protein assays.
(§3) The membranes (50 µg of protein) were incubated with [^3H] N-α-methylhistamine at various concentrations (from 0.03 nM to 50 nM) for saturation binding assays. For competitive binding assays, the membranes (50 µg of protein) were incubated with 10 nM [^3H] N-α-methylhistamine for recombinant hH3R or 2nM [^3H] N-α-methylhistamine for rat brain H3R in the presence of various compound concentrations in the buffer (50 mM Tris–HCl, pH 7.4). […] Following three washes, the membrane-bound radioactivity was measured on a Topcount (PerkinElmer) at 20°C. […] IC50 values were converted to Ki values using the Cheng-Prusoff equation. Each experiment was performed in duplicate and repeated three to six times. All data were analyzed by nonline arregression using GraphPad Prism version 4.0 software.

[3] = target: T3, rat brain H3R (Rattus norvegicus, UniProt Q9QYN8); test: Competitive/saturation binding with [3H]N-α-methylhistamine, rat cerebral cortex membranes; settings: 2 nM [3H]N-α-methylhistamine, rat cerebral cortex membranes
T3 construct: from tissue; host or cells: rat cerebral cortex membranes
Procedure: as §2, §3

[4] = target: T4, hH4R (Homo sapiens, UniProt Q9H3N8); test: CRE-driven luciferase activity in HEK-293 cells stably expressing hH4R; format: cell-based
T4 construct: expressed in transfected cells
From the text: as §1
Stable HEK-293 cells co-transfected with H3R and pCRE-Luc were seeded in a 48-well plate overnight and were grown to […] confluence. […] Luciferase activity was detected using a firefly luciferase kit (Promega, Madison, WI). When required, cells were treated overnight with or without PTX (100 ng/ml) in serum-free DMEM before the experiment.

[5] = target: T5, H3R (Cavia porcellus, UniProt Q9JI35); test: Guinea-pig ileum bioassay, inhibition of electrically induced twitch
T5 construct: from tissue; host or cells: guinea-pig ileum segments
Procedure: Each point is the mean ± s.e.m. of three to six separate experiments.
The procedure used was as described previously. Adult male guinea pigs (300–500 g) were killed by cervical dislocation. The ileum was removed at a point 20 cm from the caecum and flushed with and placed in modified K–H buffer of following composition: 118 mM NaCl, 5.9 mM KCl, 1.2 mM CaCl2, 1.2 mM MgSO4, 1 mM Na2HPO4, 25 mM NaHCO3 and 10 mM D-glucose. Ileum segments (2.5–3 cm) were suspended in 20 ml organ baths containing K–H buffer maintained at 37°C and gassed with 95% O2/5% CO2. Contractile activity under stimulation (rectangular pulses of 15 V, 0.5 ms, and 0.1 Hz) was recorded using isometric transducers (Grass FTO3). […] Mepyramine ([…]) and famotidine ([…]) (Sigma-Aldrich, St. Louis, MO) were added to the K–H buffer to block postsynaptic H1 and presynaptic H2 receptors, respectively.

T4 sequence (Q9H3N8 whole entry): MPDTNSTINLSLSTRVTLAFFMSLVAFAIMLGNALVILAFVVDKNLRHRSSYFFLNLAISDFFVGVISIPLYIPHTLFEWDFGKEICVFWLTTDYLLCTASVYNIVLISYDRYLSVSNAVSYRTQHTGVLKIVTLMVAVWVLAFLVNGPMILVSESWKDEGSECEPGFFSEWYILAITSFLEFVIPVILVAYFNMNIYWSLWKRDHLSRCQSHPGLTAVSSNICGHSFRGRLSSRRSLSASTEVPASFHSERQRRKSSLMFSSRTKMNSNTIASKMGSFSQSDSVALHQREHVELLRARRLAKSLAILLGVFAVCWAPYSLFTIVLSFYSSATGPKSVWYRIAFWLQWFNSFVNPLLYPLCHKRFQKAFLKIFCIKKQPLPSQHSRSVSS
T1 sequence (P35367 whole entry): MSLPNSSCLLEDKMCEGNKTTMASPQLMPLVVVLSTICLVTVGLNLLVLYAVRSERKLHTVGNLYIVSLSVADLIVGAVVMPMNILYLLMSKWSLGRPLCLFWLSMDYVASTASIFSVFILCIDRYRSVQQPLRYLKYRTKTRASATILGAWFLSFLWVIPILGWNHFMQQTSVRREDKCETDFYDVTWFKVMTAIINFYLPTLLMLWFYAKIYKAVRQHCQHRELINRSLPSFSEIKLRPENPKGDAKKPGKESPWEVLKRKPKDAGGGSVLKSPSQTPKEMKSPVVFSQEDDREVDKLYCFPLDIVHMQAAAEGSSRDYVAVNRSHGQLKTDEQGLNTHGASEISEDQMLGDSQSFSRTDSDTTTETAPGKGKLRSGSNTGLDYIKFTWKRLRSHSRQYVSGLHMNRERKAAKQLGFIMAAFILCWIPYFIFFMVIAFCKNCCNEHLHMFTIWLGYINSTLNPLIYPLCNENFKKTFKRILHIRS
T5 sequence (Q9JI35 whole entry): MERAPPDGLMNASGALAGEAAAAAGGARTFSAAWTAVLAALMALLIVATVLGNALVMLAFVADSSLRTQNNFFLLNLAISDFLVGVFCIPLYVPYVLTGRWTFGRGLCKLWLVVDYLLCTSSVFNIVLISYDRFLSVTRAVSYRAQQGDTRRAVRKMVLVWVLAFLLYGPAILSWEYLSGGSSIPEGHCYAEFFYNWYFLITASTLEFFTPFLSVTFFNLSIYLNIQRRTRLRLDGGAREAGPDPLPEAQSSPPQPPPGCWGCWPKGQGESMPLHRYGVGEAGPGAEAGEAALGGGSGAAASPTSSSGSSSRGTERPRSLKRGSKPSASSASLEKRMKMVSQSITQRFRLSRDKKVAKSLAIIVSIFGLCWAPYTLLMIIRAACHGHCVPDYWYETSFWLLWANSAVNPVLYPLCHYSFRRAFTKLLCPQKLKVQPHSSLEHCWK
T2 sequence (Q9Y5N1 whole entry): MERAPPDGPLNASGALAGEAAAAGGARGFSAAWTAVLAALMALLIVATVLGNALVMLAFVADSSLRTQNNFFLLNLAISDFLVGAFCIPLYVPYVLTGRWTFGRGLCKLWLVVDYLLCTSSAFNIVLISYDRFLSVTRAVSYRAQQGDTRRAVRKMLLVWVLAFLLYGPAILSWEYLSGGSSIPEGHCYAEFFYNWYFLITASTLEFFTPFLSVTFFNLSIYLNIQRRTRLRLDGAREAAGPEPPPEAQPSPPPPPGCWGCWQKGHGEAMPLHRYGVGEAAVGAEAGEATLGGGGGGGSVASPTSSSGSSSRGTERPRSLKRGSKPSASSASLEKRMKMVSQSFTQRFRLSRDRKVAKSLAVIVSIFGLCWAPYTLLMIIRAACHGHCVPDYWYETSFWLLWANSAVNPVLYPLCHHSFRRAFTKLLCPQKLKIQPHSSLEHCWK
T3 sequence (Q9QYN8 whole entry): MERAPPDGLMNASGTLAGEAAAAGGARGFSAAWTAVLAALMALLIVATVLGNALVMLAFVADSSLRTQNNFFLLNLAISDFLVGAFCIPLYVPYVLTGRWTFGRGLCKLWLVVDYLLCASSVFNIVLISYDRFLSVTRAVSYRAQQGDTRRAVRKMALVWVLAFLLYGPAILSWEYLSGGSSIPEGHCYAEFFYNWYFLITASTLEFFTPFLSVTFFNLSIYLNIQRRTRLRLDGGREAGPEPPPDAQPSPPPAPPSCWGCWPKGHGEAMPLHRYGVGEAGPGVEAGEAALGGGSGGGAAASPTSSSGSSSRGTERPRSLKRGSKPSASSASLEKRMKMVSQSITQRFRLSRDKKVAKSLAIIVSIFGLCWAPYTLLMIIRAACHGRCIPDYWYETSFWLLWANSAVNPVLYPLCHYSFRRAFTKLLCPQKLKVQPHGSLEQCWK

c1ccc2c(c1)c(CCCN1CCCCC1)cn2CCCN1CCCCC1 [ZEL-H16]
antagonist activity: influence on Ca2+ release stimulated by histamine ([1]; ZEL-H16 added to histamine): neither modulate the intracellular Ca^2+ release stimulated by histamine | agonist activity: intracellular Ca2+ release ([1]; ZEL-H16 alone, compared to histamine): did not induce similar intracellular Ca^2+ release | Ki ([2]; 10 nM [3H]N-α-methylhistamine, H3R/HEK-293 membranes, read-out: Ki): 2.07 ± 0.8 nM | affinity for human H3R as compared to histamine ([2]; higher affinity than histamine): approximately 20 fold | Ki [3]: 4.36 ± 2 nM | antagonist activity: influence on luciferase activity curves induced by histamine ([4]; ZEL-H16 added to histamine): did not significantly change the luciferase activity curves | agonist activity: luciferase activity after stimulation ([4]; ZEL-H16 alone): no significant responses | efficacy of inhibition of the contractions of the guinea pig ileum ([5]; electrically induced twitch, mepyramine and famotidine present): 54.03±5.13% | EC50 ([5]; inhibition of electrically induced twitch, read-out: pD 2 (converted)): 269 nM
